We go through 3 molecules from US7368433B2, “Peptides and methods for the control of obesity” (University of Florida Research Foundation, Inc., priority 2002, dated 2008).

Read-outs that look alike come from different tables or passages of the source.

The target of test [1] is T1, human MC4R (Homo sapiens, UniProt P32245).
T1 construct: expressed in transfected cells; host or cells: HEK-293
The following applies: literature (Yang et al 2000; Danho et al); read-out: agonist activity at the human MC4 receptor; cited from earlier work.

In test [2] the target is hMC3R (Homo sapiens, UniProt P41968). The following applies: literature (Danho et al); cited from earlier work.
Chain of hMC3R (P41968 whole entry): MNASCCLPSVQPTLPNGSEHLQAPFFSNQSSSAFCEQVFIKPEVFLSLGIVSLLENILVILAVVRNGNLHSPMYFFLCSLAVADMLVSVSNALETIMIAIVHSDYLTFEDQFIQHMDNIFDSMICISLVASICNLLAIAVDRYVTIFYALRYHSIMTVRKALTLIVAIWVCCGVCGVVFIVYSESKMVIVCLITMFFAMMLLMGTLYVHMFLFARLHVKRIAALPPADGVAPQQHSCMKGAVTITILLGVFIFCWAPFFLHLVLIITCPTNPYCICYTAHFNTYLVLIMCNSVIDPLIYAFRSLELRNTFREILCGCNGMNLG
Test [3] concerns the target T2, mMC5R (Mus musculus, UniProt P41149).
T2 construct: expressed in transfected cells; host or cells: HEK-293
As to the kind of experiment: Functional bioassay (CRE/β-galactosidase reporter), agonist activity at mMC5R. The format is cell-based. The following applies: HEK-293 cells stably expressing receptor; ± SEM. Here is the method: (§1) For cell culture and transfection, briefly, HEK-293 cells were maintained in Dulbecco's modified Eagle's medium (DMEM) with 10% fetal calf serum and seeded 1 day prior to transfection at 1 to 2×10^6 cell/100-mm dish. Melanocortin receptor DNA in the pcDNA3 expression vector (20 μg) were transfected using the calcium phosphate method. Stable receptor populations were generated using G418 selection (1 mg/mL) for subsequent bioassay analysis.
(§2) In the functional bioassay studies, HEK-293 cells stably expressing the melanocortin receptors were transfected with 4 μg CRE/β-galactosidase reporter gene as previously described in the literature. Briefly, 5,000 to 15,000 post transfection cells were plated into 96 well Primera plates (Falcon) and incubated overnight. […] The sample absorbance, OD405, was measured using a 96 well plate reader (Molecular Devices). The relative protein was determined by adding 200 μL 1:5 dilution Bio Rad G250 protein dye:water to the 10 μL cell lysate sample taken previously, and the OD595 was measured on a 96 well plate reader (Molecular Devices). […]
(§3) The pA2 values were generated using the Schild analysis method [Schild, H. O. pA2, A New Scale for the Measurement of Drug Antagonism. […] EC50 and pA2 estimates, and their associated standard errors, were determined by fitting the data to a nonlinear least-squares analysis using the PRISM program (v3.0, GraphPad Inc.).

The target of test [4] is T3, mMC4R (Mus musculus, UniProt P56450).
T3 construct: expressed in transfected cells; host or cells: HEK-293
T3 sequence (P56450 whole entry): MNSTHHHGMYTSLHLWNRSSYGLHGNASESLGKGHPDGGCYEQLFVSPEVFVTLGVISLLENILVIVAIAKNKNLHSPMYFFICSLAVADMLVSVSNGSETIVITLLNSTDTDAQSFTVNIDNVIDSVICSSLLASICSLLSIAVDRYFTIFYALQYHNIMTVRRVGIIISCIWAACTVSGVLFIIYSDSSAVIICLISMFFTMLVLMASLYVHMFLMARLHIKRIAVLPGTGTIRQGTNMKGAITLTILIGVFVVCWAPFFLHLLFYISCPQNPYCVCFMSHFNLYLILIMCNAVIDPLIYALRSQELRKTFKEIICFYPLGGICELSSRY
As to the kind of experiment: Functional bioassay (CRE/β-galactosidase reporter), agonist activity at mMC4R. The format is cell-based. To be noted: HEK-293 cells stably expressing receptor; ± SEM. Here is the method: as §1, §2, §3

The subject of test [5] is food intake. To be noted: central / ICV administration to rodents, literature, cited from earlier work.

T1 sequence (P32245 whole entry): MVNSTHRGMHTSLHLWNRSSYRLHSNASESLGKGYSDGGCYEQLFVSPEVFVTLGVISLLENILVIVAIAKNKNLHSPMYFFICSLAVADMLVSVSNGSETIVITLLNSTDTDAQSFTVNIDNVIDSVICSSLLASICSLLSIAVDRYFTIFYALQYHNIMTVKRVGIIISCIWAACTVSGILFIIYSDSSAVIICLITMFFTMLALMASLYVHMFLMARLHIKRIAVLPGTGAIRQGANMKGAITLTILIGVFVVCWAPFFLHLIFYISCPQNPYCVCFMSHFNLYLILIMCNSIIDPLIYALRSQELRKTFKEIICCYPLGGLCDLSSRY
T2 sequence (P41149 whole entry): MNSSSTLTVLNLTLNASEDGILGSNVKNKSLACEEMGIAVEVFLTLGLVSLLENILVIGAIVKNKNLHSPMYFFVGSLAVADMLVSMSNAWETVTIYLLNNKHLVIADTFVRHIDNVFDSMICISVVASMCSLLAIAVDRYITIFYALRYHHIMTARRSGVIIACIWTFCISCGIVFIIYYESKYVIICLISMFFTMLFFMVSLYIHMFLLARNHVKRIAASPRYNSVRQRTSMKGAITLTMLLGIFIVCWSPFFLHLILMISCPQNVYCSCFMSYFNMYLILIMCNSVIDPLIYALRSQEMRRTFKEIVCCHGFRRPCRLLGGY

On to “c[Asp-(racemic)Atc-DPhe-Arg-Trp-Lys]-NH2”, for which, in test [1], the EC50 was 65 nM. In addition, the “agonist activity at the hMC3R (in words)” value in test [2] is listed as “only slight agonist activity”.
With `CC(=O)N[C@@H](Cc1c[nH]cn1)C(=O)N[C@H](Cc1ccccc1)C(=O)N[C@@H](CCCNC(=N)N)C(=O)N[C@@H](Cc1c[nH]c2ccccc12)C(N)=O` [JRH279-31, Ac-His-DPhe-Arg-Trp-NH2], the EC50 is 3.96 ± 0.94 nM in test [3] and 17.2 ± 2.78 nM in test [4].
As to “Ac-Nle-c[Asp-His-DNal(2′)-Arg-Trp-Lys]-NH2 [SHU91 19]”, the results for the “effect on food intake” value in test [5] and in test [5] (listed as SHU-9119) were “increased food intake” and “can induce hyperphagia”, respectively.
